Measured values: EP4656642A1, “ESTROGEN RECEPTOR PROTEOLYSIS TARGETING CHIMERA COMPOUND AND USE THEREOF” (GAN & LEE PHARM CO., LTD, priority 2023, dated 2024)

Legend:
Assay type in all cases: cell-based
T-47D cells = assay: Inhibition of cell proliferation in T-47D cells (CCK-8, 6 days); details: 6 days of treatment
Method in brief: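 T-47D cells at 3,000 cells/well in RPMI 1640 with 10% FBS were exposed to a concentration series of PROTAC compounds for 6 days at 37 °C, 5% CO2. Viability was read by CCK-8, and IC50 values were derived for proliferation inhibition.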

MCF-7 cells = assay: Inhibition of cell proliferation of MCF-7 cells (CCK-8, 9 days)
Method in brief: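 MCF-7 cells seeded at 800 cells/well in DMEM with 10% FBS, exposed to a range of compound concentrations for 9 days at 37°C, 5% CO2. Viability read by CCK-8; IC50 derived for proliferation inhibition.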

ERα [1] = target: T1, ERα (Homo sapiens, UniProt P03372); assay: Degradation of ERα in MCF-7 cells (immunoblotting, 4 h)
T1 sequence (P03372 1-595): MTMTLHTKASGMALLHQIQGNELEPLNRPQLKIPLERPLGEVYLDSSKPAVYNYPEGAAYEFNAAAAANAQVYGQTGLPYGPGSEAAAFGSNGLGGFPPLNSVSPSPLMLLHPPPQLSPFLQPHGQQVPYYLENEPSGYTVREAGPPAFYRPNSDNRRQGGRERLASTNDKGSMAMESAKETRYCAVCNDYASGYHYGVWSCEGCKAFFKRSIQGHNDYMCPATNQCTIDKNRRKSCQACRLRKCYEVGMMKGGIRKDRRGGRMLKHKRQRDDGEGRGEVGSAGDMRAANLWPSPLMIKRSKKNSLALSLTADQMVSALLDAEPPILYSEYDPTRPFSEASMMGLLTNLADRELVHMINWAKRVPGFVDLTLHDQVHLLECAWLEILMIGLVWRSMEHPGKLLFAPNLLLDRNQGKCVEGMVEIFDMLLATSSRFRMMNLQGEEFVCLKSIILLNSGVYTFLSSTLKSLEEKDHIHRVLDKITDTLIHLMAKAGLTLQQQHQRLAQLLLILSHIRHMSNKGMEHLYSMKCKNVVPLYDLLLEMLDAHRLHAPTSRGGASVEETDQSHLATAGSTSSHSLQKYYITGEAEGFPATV
Method in brief: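 MCF-7 cells treated 4 h at 37°C with compounds at 0.15-1000nM final. ERα in lysates measured by immunoblot, with band grayscale normalized to an internal reference protein. Degradation rate calculated against DMSO-treated control.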

ERα [2] = target: T1, ERα; assay: Degradation of ERα in T-47D cells (immunoblotting, 4 h); design: host or cells: T-47D
Method in brief: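 T-47D cells were treated with compound (final 0.15-1000 nM, DMSO) for 4 h at 37°C, 5% CO2. Cells were lysed in RIPA buffer with protease inhibitor, and ERα protein in the cleared lysate was measured by immunoblotting.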

[3] = treated for 9 days, CCK-8 kit (Table 6)
[4] = 9 days of treatment, CCK-8, Table 5

IC50 (T-47D cells; Table 3) [µM] | IC50 (MCF-7 cells; [3]) [µM] | Degradation rate (%) of ERα in MCF-7 cells (ERα [1]; 1nM compound) [%] | Degradation rate (%) of ERα in MCF-7 cells (ERα [1]; 10nM compound) [%] | Degradation rate (%) of ERα in T-47D cells (ERα [2]; 1nM compound) [%] | Degradation rate (%) of ERα in T-47D cells (ERα [2]; 10nM compound) [%] | IC50 (T-47D cells; Table 2) [µM] | IC50 (MCF-7 cells; [4]) [µM] | SMILES
0.00118 | 0.0103 | 46 | 62 | 48 | 73 | – | – | C[C@@H]1Cc2c([nH]c3ccccc23)[C@@H](c2c(F)cc(N3CCN(C[C@H]4CC[C@H](C(=O)N5CCC6(CC5)COc5c6ccc6c5CN(C5CCC(=O)NC5=O)C6=O)CC4)CC3)cc2F)N1CC(F)F (stereo partly shown) [A114]
0.00465 | 0.8 | 11 | 46 | 36 | 78 | – | – | O=C1CCC(N2C(=O)c3ccc4c(c3C2=O)OCC42CCN(C3CCN(C(=O)C4CCN(c5ccc([C@@H]6c7ccc(O)cc7CC[C@@H]6c6ccccc6)cc5)CC4)CC3)CC2)C(=O)N1 (stereo partly shown) [H27]
0.00137 | 0.0125 | 32 | 76 | 27 | 72 | – | – | O=C1CCC(N2Cc3c(ccc4c3OCC43CCN(C4CCN(C5CC6(CCN(c7ccc([C@@H]8c9ccc(O)cc9CC[C@@H]8c8ccccc8)cc7)CC6)C5)CC4F)CC3)C2=O)C(=O)N1 (stereo partly shown) [H33]
0.007 | 0.037 | -12 | 8 | 15 | 35 | – | – | O=C1CCC(N2Cc3cc4c(cc3C2=O)OC2(CC4)CN(CC3CCC4(CC3)CCN(c3ccc([C@@H]5c6ccc(O)cc6CC[C@@H]5c5ccccc5)cc3)CC4)C2)C(=O)N1 (stereo partly shown) [A37]
0.00183 | 25.1 | 41 | 49 | 47 | 66 | – | – | O=C1CCC(N2Cc3c(ccc4c3OCC43CCN(C(=O)c4ccc(CN5CCN(c6ccc([C@@H]7c8ccc(O)cc8CC[C@@H]7c7ccccc7)cc6)CC5)cc4)CC3)C2=O)C(=O)N1 (stereo partly shown) [B39]
– | – | -2 | -29 | -9 | -45 | 0.0052 | 0.13 | O=C1CCC(N2Cc3ccc4c(c3C2=O)OC2(CC4)CCN(C3CCC4(CC3)CCN(c3ccc([C@@H]5c6ccc(O)cc6CC[C@@H]5c5ccccc5)cc3)CC4)CC2)C(=O)N1 (stereo partly shown) [L1]
2.46 | 90.9 | 17 | 26 | 3 | 13 | – | – | C[C@@H]1Cc2c(ccc3[nH]ncc23)C(c2ccc(N3CCC(C(=O)N4CCC(N5CCC6(CC5)COc5c6ccc6c5CN(C5CCC(=O)NC5=O)C6=O)CC4)CC3)cn2)N1CC(F)(F)F (stereo partly shown) [B42]
0.00105 | 0.0331 | 71 | 86 | 69 | 88 | – | – | O=C1CCC(N2Cc3c(ccc4c3OCC43CCN(C4CCN(C5CC6(CCN(c7ccc([C@@H]8c9ccc(O)cc9CC[C@@H]8c8ccccc8)cc7)CC6)C5)[C@@H](C(=O)NC5CC5)C4)CC3)C2=O)C(=O)N1 (stereo partly shown) [K27]
0.00112 | 0.0482 | 67 | 88 | 56 | 87 | – | – | CCNC(=O)[C@H]1CC(N2CCC3(CC2)COc2c3ccc3c2CN(C2CCC(=O)NC2=O)C3=O)CCN1C1CC2(CCN(c3ccc([C@@H]4c5ccc(O)cc5CC[C@@H]4c4ccccc4)cc3)CC2)C1 (stereo partly shown) [K26]
0.00175 | 0.0847 | 38 | 63 | 45 | 74 | – | – | O=C1CCC(N2Cc3cc4c(cc3C2=O)CCC2(CN(C(=O)[C@H]3CC[C@H](CN5CCN(c6ccc([C@@H]7c8ccc(O)cc8CC[C@@H]7c7ccccc7)cc6)CC5)CC3)C2)O4)C(=O)N1 (stereo partly shown) [C7]
– | – | – | 14 | – | 53 | 0.009 | 0.01 | O=C1CCC(N2Cc3cc4c(cc3C2=O)OC2(CC4)CCN(C3CCC4(CC3)CN(c3ccc(C5c6ccc(O)cc6CCC5c5ccccc5)cc3)C4)CC2)C(=O)N1 (stereo not shown) [A23]
0.00158 | 0.00919 | 44 | 51 | 50 | 68 | – | – | O=C1CCC(N2Cc3c(ccc4c3OCC43CCN(CC(=O)N4CC[C@]5(CCN(c6ccc([C@@H]7c8ccc(O)cc8CC[C@@H]7c7ccccc7)cc6)C5)C4)CC3)C2=O)C(=O)N1 (stereo partly shown) [H23]
0.00102 | 0.0627 | 47 | 54 | 61 | 68 | – | – | O=C1CCC(N2Cc3c(ccc4c3OCC43CCN(C(=O)C4CCC(N5CCN(c6ccc([C@@H]7c8ccc(O)cc8CC[C@@H]7c7ccccc7)cc6)CC5)CC4)CC3)C2=O)C(=O)N1 (stereo partly shown) [H17]
0.0109 | 0.0606 | 0 | 16 | 17 | 43 | – | – | O=C1CCC(N2Cc3c(ccc4c3OCC43CCN(C[C@H]4CC[C@H](C#Cc5ccc([C@@H]6c7ccc(O)cc7CC[C@@H]6c6ccccc6)cc5)CC4)CC3)C2=O)C(=O)N1 (stereo partly shown) [A115]
0.00363 | 0.247 | -7 | -8 | 10 | 42 | – | – | CN(C1CCN(c2ccc([C@@H]3c4ccc(O)cc4CC[C@@H]3c3ccccc3)cc2)CC1)[C@H]1CC[C@H](C(=O)N2CCC3(CC2)COc2c3ccc3c2CN(C2CCC(=O)NC2=O)C3=O)CC1 (stereo partly shown) [N2]
0.00178 | 0.0527 | 50 | 72 | 42 | 79 | – | – | C[C@@H]1CC2(CCN(c3ccc([C@@H]4c5ccc(O)cc5CC[C@@H]4c4ccccc4)cc3)CC2)CN1CC(=O)N1CCC2(CC1)COc1c2ccc2c1CN(C1CCC(=O)NC1=O)C2=O (stereo partly shown) [A90]
0.008 | 0.03 | -9 | 0 | 10 | 20 | – | – | O=C1CCC(N2Cc3cc4c(cc3C2=O)OC2(CC4)CCN(C3CC4(CCN(c5ccc([C@@H]6c7ccc(O)cc7CC[C@@H]6c6ccccc6)cc5)CC4)C3)CC2)C(=O)N1 (stereo partly shown) [M17]
0.00119 | 0.00512 | 48 | 90 | 51 | 83 | – | – | O=C1CCC(N2Cc3c(ccc4c3OCC43CCN(C4CCN(C5CC6(CCN(c7ccc([C@@H]8c9ccc(O)cc9CC[C@@H]8c8ccccc8)cc7)CC6)C5)[C@@H](C(=O)N5CC(F)(F)C5)C4)CC3)C2=O)C(=O)N1 (stereo partly shown) [A98]

SMILES | IC50 (T-47D cells; Table 3) [µM] | IC50 (MCF-7 cells; [3]) [µM] | Degradation rate (%) of ERα in MCF-7 cells (ERα [1]; 1nM compound) [%] | Degradation rate (%) of ERα in MCF-7 cells (ERα [1]; 10nM compound) [%] | Degradation rate (%) of ERα in T-47D cells (ERα [2]; 1nM compound) [%] | Degradation rate (%) of ERα in T-47D cells (ERα [2]; 10nM compound) [%] | IC50 (T-47D cells; Table 2) [µM] | IC50 (MCF-7 cells; [4]) [µM]
O=C1CCC(N2Cc3cc4c(cc3C2=O)CCC2(CN(C(=O)C3CCC5(CC3)CN(c3ccc([C@@H]6c7ccc(O)cc7CC[C@@H]6c6ccccc6)cc3)C5)C2)O4)C(=O)N1 (stereo partly shown) [A46] | 0.0106 | 1.25 | -22 | -26 | 7 | 33 | – | –
O=C1CCC(N2Cc3c(ccc4c3OCC43CCN(C4CCN(C5CN(c6ccc([C@@H]7c8ccc(O)cc8CC[C@@H]7c7ccccc7)cc6)C5)CC4)CC3)C2=O)C(=O)N1 (stereo partly shown) [A61] | 0.027 | 0.837 | -4 | -19 | 9 | -2 | – | –
